The assay has as its target T1, glucosylceramide synthase (GCS) (Mus musculus, UniProt O88693).
T1 construct: monitored by incubating intact cells for 4 h with 5 μM NBD-C6-ceramide; endogenous in cells; host or cells: murine melanoma cells
T1 sequence (O88693 1-394): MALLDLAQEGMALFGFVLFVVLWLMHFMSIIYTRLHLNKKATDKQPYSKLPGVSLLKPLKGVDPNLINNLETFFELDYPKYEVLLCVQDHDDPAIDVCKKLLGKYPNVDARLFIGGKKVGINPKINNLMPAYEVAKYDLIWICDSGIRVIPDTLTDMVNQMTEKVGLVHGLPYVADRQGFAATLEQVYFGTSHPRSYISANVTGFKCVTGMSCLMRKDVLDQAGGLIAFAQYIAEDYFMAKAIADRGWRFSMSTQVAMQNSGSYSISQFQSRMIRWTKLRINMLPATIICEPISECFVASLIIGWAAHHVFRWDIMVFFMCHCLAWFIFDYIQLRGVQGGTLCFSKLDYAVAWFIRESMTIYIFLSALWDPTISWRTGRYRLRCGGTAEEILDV
The assay is described as follows: Cellular inhibition assay against glucosylceramide synthase (NBD-C6-ceramide conversion to GlcCer). Type of assay: cell-based. The note with it: B16 murine melanoma cells incubated overnight with 25 μM compound, biosynthesis of GlcCer. On the procedure:
Evaluation of GCS inhibition was performed as previously reported. The in vivo metabolism of sphingolipids was monitored by incubating intact cells for 4 h with 5 μM NBD-C6-ceramide, delivered by ethanolic injection. Cells were then harvested, lysed in a small volume of water (0.5 mL) and lipids were extracted by adding 2.5 mL of chloroform/methanol (2:1, v/v). After centrifugation (1000× g, 5 min), the lower phases were dried under nitrogen and subjected to TLC by using chloroform/methanol/32% ammonia (70:30:5, v/v) as the mobile phase. NBD-C6-GlcCer was eluted from the silica and quantified spectrofluorometrically (λex = 470 nm and λem = 530 nm) by comparison with known amounts of NBD-lipid.

This is an account of results in publication PMC6359432, “Selective Targeting of the Interconversion between Glucosylceramide and Ceramide by Scaffold Tailoring of Iminosugar Inhibitors” (Molecules, 2019).

For the compound `CCCCCCCC[C@H]1CNC[C@@H](O)[C@@H]1O` [6b, (3R,4R,5S)-5-Octylpiperidine-3,4-diol], the “Enzyme Inhibition GCS” value is “no detectable impact on GlcCer biosynthesis”.
